# Measurements reported in patent publication US11759495B2, “Upregulation of therapeutic T regulatory cells and suppression of suicidal ideations in response to inflammation by administration of nutraceutical compositions alone or combined with minocycline” (Therapeutic Solutions International, Inc., priority 2020, dated 2023).
# Read-outs that look alike come from different tables or passages of the source.
# Assays:
# [1] = tested on: myocardial ischemia and reperfusion; settings: cited from earlier work
# [2] = tested on: iNOS; settings: cited from earlier work
# [3] = tested on: lethal endotoxemia / lethal sepsis; settings: cited from earlier work
# [4] = tested on: macrophage foam cells; settings: cited from earlier work
# [5] = tested on: LPS-induced ARDS; settings: cited from earlier work
# [6] = tested on: polymicrobial sepsis; settings: 10 mg/kg intraperitoneally, 72 h after CL2P; cited from earlier work
# [7] = tested on: polymicrobial sepsis; settings: 10 mg/kg intraperitoneally at 1 and 6 h after CL2P and every 12 h; cited from earlier work
# [8] = tested on: ulcerative colitis (UC); settings: cited from earlier work
# [9] = tested on: lipopolysaccharide-induced inflammatory reactions; settings: cited from earlier work
# [10] = tested on: sepsis induction with live Escherichia coli / LPS O111:B4; settings: cited from earlier work; for concentration of IL-1α: controls 1187.0±278.64
# [11] = tested on: NK cell; experiment: Nanostilbene in cancer patients: NK cell activity and interferon gamma; type: in vivo, human; settings: administered in the form of nanostilbene
# Text: Additionally, pterostilbene has shown to inhibit inflammatory cytokines associated with ARDS.
# [12] = tested on: inflammatory cytokines associated with ARDS; settings: cited from earlier work
# [13] = rat, in vivo; cited from earlier work
# [14] = tested on: LPS-challenged macrophages; settings: 0 to 50 μM, 6 h pre-incubation, LPS 24 h; cited from earlier work
# [15] = tested on: primary peritoneal macrophages; settings: cited from earlier work
# [16] = tested on: LPS-induced ARDS; settings: cited from earlier work; remark: listed apart in the source
# [17] = 10 mg/kg intravenously then 10 mg/kg/h infusion
compound,measurement,setting,value
epigallocatechin-3-gallate [EGCG],myeloperoxidase activity,[1]; [17],reduced
same,myocardial damage,[1]; [17],reduced
same,nuclear factor-kB and activator protein-1 DNA binding,"[1]; rat, in vivo",reduction
same,plasma IL-6 levels,"[1]; rat, in vivo",decreased
same,plasma creatine phosphokinase levels,"[1]; rat, in vivo",decreased
same,NO production,[2]; cells cotreated with EGCG and LPS,Inhibition
same,130-kDa protein and 4.5-kb mRNA levels of iNOS,[2],significantly reduced
same,disappearance of inhibitor kappaB from cytosolic fraction,[2],blocked
same,activation of nuclear factor-kappaB,[2]; electrophoretic mobility shift assay,blocked
same,rescue from lethal sepsis,[3]; first dose 24 hours after cecal ligation and puncture,rescued
same,protection against lethal endotoxemia,[3]; intraperitoneal,protected
same,TNF-α-induced nuclear factor-κB (NF-κB) activity,[4],inhibition
same,TNF-α-induced downregulation of ABCA1 and decrease in cholesterol efflux to apoA1,[4]; pretreatment,attenuated
same,LPS-induced ARDS,[5]; 10 mg/kg ip 1 h before LPS 10 mg/kg ip,attenuated
same,expression of IκB-α,[5]; 10 mg/kg ip,increased
same,"expression of TLR-4, MyD88, TRIF, and p-p65 in the lung tissue",[5]; 10 mg/kg ip,alleviated
same,"expression of TNF-α, IL-1f and IL-6 in the lung, serum, and bronchoalveolar lavage fluid",[5]; 10 mg/kg ip,significantly decreased
same,expression of p65,[5]; 10 mg/kg ip,had no influence
same,survival,[6],significantly improved
same,hypotension (mean arterial blood pressure),[7],significantly improved
same,colonic tissue erosion,[8]; 50 and 100 mg/kg/day,attenuation
same,HIF-1α and STAT3 protein expression in the colon,"[8]; mouse, in vivo",decreasing
same,plasma levels of IL-10 and TGF-β1,"[8]; mouse, in vivo",increasing
same,release of IL-6 and IL-17,[8]; plasma,reduce
CC1=CC(=O)C(C(C)C)=CC1=O [thymoquinone],concentration of nitric oxide,[9],reduced significantly
same,lipopolysaccharide-induced inflammatory reactions,[9],suppressed effectively
same,concentration of IL-1α,[10]; 0.75 mg/kg dose,310.8 ± 70.93 pg/mL
same,IL-10 levels,"[10]; 0.75 mg/kg, controls 5505.2±333.96",2885.0 ± 553.98 pg/mL
same,concentration of IL-1α,[10]; 1 mg/kg group,428.3 ± 71.32 pg/mL
same,levels of IL-2,[10]; P=0.0851,relatively lower levels
same,levels of TNF-α,[10]; P=0.1817,relatively lower levels
same,mortality reduction,"[10]; mice, thymoquinone intraperitoneal",80-90%
same,renal and hepatic biomarker profiles,"[10]; mouse, in vivo",improved
"trans-3,5-dimethoxy-4-hydroxystilbene [pterostilbene]",NK cell activity,[11],increased NK cell activity
same,interferon gamma production,[11],increased
same,"interleukin-1, interleukin-6, interleukin-8 and TNF-alpha",[12],inhibition
same,bioavailability,[13],80%
"C[S+]([O-])CCCCN=C=S (stereo not shown) [sulforaphane, 1-isothiocyanato-4-(methylsulfinyl)-butane]",direct reaction with cytokines and NO,[14],"neither directly reacted with cytokines, nor with NO"
same,expression of NO and cytokines,[14],able to prevent
same,HO-1 expression,[15]; LPS-stimulated Nrf2 (+/+) macrophages,significantly augmented
same,"LPS-stimulated mRNA expression, protein expression and production of TNF-alpha, IL-1beta, COX-2 and iNOS","[15]; Nrf2 (+/+) macrophages, pretreatment",potently inhibited
same,anti-inflammatory effect,[15]; Nrf2 (-/-) macrophages,attenuated
same,serum levels of interleukin-6 (IL-6),"[16]; 50 mg/kg, ELISA",significantly decreased
same,serum levels of tumor necrosis factor-α (TNF-α),"[16]; 50 mg/kg, ELISA",significantly decreased
same,lactate dehydrogenase (LDH) activity,"[16]; 50 mg/kg, LPS 5 mg/kg 3 days later",significantly decreased
same,cyclooxygenase-2 (COX-2) protein expression,"[16]; 50 mg/kg, western blot",significantly inhibited
same,matrix metalloproteinase-9 (MMP-9) protein expression,"[16]; 50 mg/kg, western blot",significantly inhibited
same,inducible nitric oxide synthase (iNOS) activity,[16]; 50 mg/kg,significantly inhibited
same,nuclear factor-KB protein expression,[16]; 50 mg/kg,significantly decreased
same,prostaglandin E2 (PGE2) production,[16]; 50 mg/kg,significantly inhibited
same,wet-to-dry ratio of the lungs,[16]; 50 mg/kg,significantly decreased
same,Nrf2/antioxidant response element (ARE) pathway,[16]; pre-treatment,activated
